18 compounds from ChEMBL document CHEMBL2046417, “Synthesis and evaluation of pyridylbenzofuran, pyridylbenzothiazole and pyridylbenzoxazole derivatives as ¹⁸F-PET imaging agents for β-amyloid plaques” (Bioorg Med Chem Lett, 2012) can be followed below.

Experiment [1] has as its target T1, Amyloid-beta precursor protein (Homo sapiens, UniProt P05067). Kind of experiment: Displacement of [3H]AZD2184 from human amyloid beta(1 to 40). A general note: Displacement assays read how much labelled ligand stays bound in the presence of the test substance.
The target in experiment [2] is T1, Amyloid-beta precursor protein. In words: Binding affinity to amyloid beta(1 to 40) in cortical section isolated from Alzheimer disease patient by autoradiographic analysis. Conditions: tested as the 3H-labelled form.
Experiment [3] concerns Mus musculus. Kind of experiment: Binding affinity to amyloid beta(1 to 40) in Tg2576 mouse plaque at 150 nmol/kg, iv after 10 mins by autoradiography analysis. The format is functional, organism-based.
Experiment [4] addresses T1, Amyloid-beta precursor protein. In words: Binding affinity to amyloid beta(1 to 40) in cortical section isolated from Alzheimer disease patient at 1 nM by autoradiographic analysis.

The source made the active and inactive calls. No cut-off for these calls is given here.

T1 sequence (P05067 whole entry): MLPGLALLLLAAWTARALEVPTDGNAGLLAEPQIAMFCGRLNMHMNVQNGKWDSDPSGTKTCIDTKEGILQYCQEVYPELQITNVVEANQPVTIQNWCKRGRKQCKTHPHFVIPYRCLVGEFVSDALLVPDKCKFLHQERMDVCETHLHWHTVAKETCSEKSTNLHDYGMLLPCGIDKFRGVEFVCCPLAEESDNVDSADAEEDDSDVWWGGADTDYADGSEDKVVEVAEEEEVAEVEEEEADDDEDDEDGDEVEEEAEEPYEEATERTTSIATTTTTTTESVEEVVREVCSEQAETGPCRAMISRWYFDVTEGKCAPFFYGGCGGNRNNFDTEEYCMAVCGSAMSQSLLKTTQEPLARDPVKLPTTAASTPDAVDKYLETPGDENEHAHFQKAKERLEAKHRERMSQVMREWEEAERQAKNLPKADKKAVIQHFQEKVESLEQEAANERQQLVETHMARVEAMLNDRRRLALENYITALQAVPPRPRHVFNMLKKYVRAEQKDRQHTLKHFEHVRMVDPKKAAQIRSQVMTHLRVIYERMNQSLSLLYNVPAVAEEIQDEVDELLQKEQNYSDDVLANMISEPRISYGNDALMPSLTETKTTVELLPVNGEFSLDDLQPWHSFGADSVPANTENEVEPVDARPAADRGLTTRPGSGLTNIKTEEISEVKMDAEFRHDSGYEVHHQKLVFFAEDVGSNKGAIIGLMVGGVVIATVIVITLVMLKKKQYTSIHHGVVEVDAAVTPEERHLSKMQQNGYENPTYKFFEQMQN

As a reminder, the IC50 is the concentration that inhibits the measured activity by half. The low end stands for higher potency, the high end for lower potency. In the case of `Oc1ccc2nc(-c3ccc(NCCCF)nc3)sc2c1`, in experiment [1], the IC50 was 66 nM.

With `CNc1ccc(-c2cc3cc(C(N)=O)ccc3o2)nc1F`, the IC50 in experiment [1] came to 32 nM.

Regarding `CNc1ccc(-c2nc3ccc(OC)cc3s2)c(F)n1`, the IC50 in experiment [1] was determined as 14 nM.

On to `CNc1ncc(-c2cc3cc(O)ccc3o2)cc1F`, for which the IC50 in experiment [1] is 30 nM.

In experiment [1], `COc1ccc2oc(-c3ccc(C(N)=O)nc3F)cc2c1` gave a 50% inhibitory concentration (IC50) of 32 nM.

In experiment [1], `COc1ccc2nc(-c3ccc(NCCF)nc3)oc2c1` yielded an IC50 of 35 nM. The outcome in experiment [2] was inactive.

`Oc1ccc2nc(-c3ccc(NCCF)nc3)oc2c1` came in with an IC50 in experiment [1] of 158 nM.

`CNc1ccc(-c2cc3cc(C(N)=O)ccc3o2)c(F)n1` returned an IC50 in experiment [1] of 19 nM.

As to `CNc1ccc(-c2nc3ccc(O)cc3s2)cc1F` [FLUTEMETAMOL], the IC50 in experiment [1] stood at 24 nM. The result in experiment [3] and in experiment [4] was Active.

In experiment [1], `Oc1ccc2nc(-c3ccc(NCCF)nc3)sc2c1` displayed an IC50 of 33 nM.

In experiment [1], `CNc1ccc(-c2nc3ccc(O)cc3s2)nc1F` registered an IC50 of 44 nM.

`CNc1ncc(-c2nc3ccc(O)cc3s2)cc1F` displayed an IC50 in experiment [1] of 98 nM.

In experiment [1], `NC(=O)c1ccc(-c2cc3cc(O)ccc3o2)c(F)n1` gave an IC50 of 44 nM.

For `CNc1ccc(-c2cc3cc(O)ccc3o2)c(F)n1` [FLUTAFURANOL], the IC50 in experiment [1] turned out to be 24 nM. For the same compound, the outcome in experiment [3] (tested as the 3H-labelled form) and in experiment [4] (tested as the 3H-labelled form) was Active.

As for `CNc1ccc(-c2cc3cc(O)ccc3o2)nc1F`, in experiment [1], the IC50 came to 35 nM.

As for `Oc1ccc2nc(-c3ccc(NCCCF)nc3)oc2c1`, the IC50 in experiment [1] turned out to be 395 nM.

`CNc1ccc(-c2nc3ccc(O)cc3s2)c(F)n1`: in experiment [1], the IC50 was 124 nM.

For `CNc1ccc(-c2nc3ccc(O)cc3s2)cn1`, the IC50 in experiment [1] is 22 nM.
